This is an account of results in patent US20090048258A1, “Amide Compound” (priority 2005, published 2009).

The target in this experiment is T1, Human DGAT1 (Homo sapiens, UniProt O75907).
T1 construct: my translation of the primer: M-G-DYKDDDD-GDRGSSRRR) (N); made in house; host or cells: Sf9 insect cells (recombinant baculovirus BAC-DGAT1, pFASTBAC1); microsome fraction
T1 sequence (O75907 1-488): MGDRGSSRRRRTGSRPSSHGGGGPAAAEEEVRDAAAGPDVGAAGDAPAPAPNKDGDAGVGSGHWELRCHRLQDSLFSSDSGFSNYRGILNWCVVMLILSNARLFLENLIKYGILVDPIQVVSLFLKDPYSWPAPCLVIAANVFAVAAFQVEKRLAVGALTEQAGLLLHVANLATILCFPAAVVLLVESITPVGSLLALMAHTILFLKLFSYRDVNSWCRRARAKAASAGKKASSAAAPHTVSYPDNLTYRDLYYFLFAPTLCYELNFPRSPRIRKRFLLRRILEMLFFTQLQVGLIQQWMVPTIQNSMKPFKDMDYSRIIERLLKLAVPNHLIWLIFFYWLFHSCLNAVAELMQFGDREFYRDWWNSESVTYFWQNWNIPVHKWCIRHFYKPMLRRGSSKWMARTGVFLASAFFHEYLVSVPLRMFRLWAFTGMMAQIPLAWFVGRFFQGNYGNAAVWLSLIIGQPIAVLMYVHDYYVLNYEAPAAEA
The experiment can be described thus: DGAT inhibitory activity: [14C]-triglyceride synthesis by DGAT1 high expression Sf9 microsome. The format is biochemical. As to conditions: Table 1, 25 μM dioleoylglycerol, 25 μM [14C]-Oleoyl-CoA, 32° C., 15 min, read-out: DGAT inhibitory activity (according to IC50). Here is the method:
The primer base sequence is shown below.
The PCR reaction was conducted using a KOD-plus kit (TOYOBO). The obtained PCR product was electrophoresed on agarose gel (1%), the DNA fragment amplified by PCR was recovered from the gel, and then digested with restriction enzymes EcoRI and SpeI. […] Furthermore, using BAC-TO-BAC Baculovirus Expression System (Invitrogen), recombinant baculovirus BAC-DGAT1 was prepared.
SF9 cells were sown at 1×10^6 cells/ml on Sf-900II SEM medium (1 L, Invitrogen) containing 10% fetal calf serum (Trace), 50 mg/L gentamicin (Invitrogen) and 0.1% Pluronic F-68 (Invitrogen), and shaking culture was performed using a 2 L volume Erlenmeyer at 27° C., 100 rpm. After culturing for 24 hr, recombinant baculovirus BAC-DGAT1 (6.7 mL) was added, and the mixture was further cultured for 3 days. The culture medium was centrifuged at 2,000 rpm for 5 min to give virus-infected cells. The infected cells were washed with a phosphate buffered saline (Invitrogen), centrifuged under the same conditions, and the cells were preserved at −80° C. The cryopreserved cells were thawed in ice, suspended in buffer A (50 mM Tris buffer (30 mL, pH 7.4) containing 20% glycerol, 0.15 M NaCl) supplemented with Complete Protease Inhibitor (Boehringer), and ruptured 3 times with a Polytron homogenizer (Kinematica) at 20,000 rpm for 30 sec. The Sf9 microsome fractions were obtained by a conventional method and cryopreserved at −80° C. as a DGAT1 high expression Sf9 microsome.
As a DGAT1 reaction buffer, a solution having a composition of 100 mM Tris-HCl (pH 7.5), 250 mM sucrose, 150 mM MgCl2, 0.01% bovine serum albumin (BSA) was used. […] A mixture of 300 μL of chloroform:methanol (=1:2) was added to the reaction mixture to quench the reaction. The reaction mixture was sufficiently mixed and saline (200 μL) was added to partition the mixture between a chloroform layer (lower layer) and an aqueous layer (upper layer). The chloroform layer (50 μL) was spotted on a thin layer chromatography silica gel plate (TLC plate, Merck) and developed with a solvent (n-hexane:diethyl ether:ethyl acetate:acetic acid=74:15:15:1). The developed TLC plate was dried, contacted with a BAS imaging plate (manufactured by FUJIFILM) and measured with BAS2500 (manufactured by FUJIFILM) 16 hr later to numerically show the amount of [^14C]-triglyceride (TG amount) produced during the reaction. The inhibitory rate was calculated by the following formula:
Inhibitory rate (%)=(1−(TG amount in the case with addition of test compound−blank TG amount)/(control TG amount−blank TG amount))×100
The count of the triglyceride produced in the solution reacted without addition of the test compound was used as a “control TG amount”, and the count of the triglyceride produced in the solution reacted without addition of the test compound and DGAT1 high expression Sf9 microsome was used as a “blank TG amount”.
One may read the IC50 as the concentration at which inhibition is half-maximal. In the case of `COc1cc2c(cc1OC)C(=O)[C@H](CC(=O)Nc1nc(-c3ccccc3)c(Cc3ccccc3)s1)C2` (stereo in doubt) [Example 6, N-(5-benzyl-4-phenyl-1,3-thiazol-2-yl)-2-(5,6-dimethoxy-1-oxo-2,3-dihydro-1H-inden-2-yl)acetamide], the IC50 lay within 10 to 50 nM.
Next, `CCOc1ccc(C(=O)CCC(=O)Nc2nc(-c3ccccc3)c(Cc3ccccc3)s2)cc1` [Example 1, N-(5-benzyl-4-phenyl-1,3-thiazol-2-yl)-4-(4-ethoxyphenyl)-4-oxobutanamide]: ≤ 10 nM.
Then `O=C(CCC(=O)c1ccccc1)Nc1nc(-c2ccccc2)c(Cc2ccccc2)s1` [Example 2, N-(5-benzyl-4-phenyl-1,3-thiazol-2-yl)-4-oxo-4-phenylbutanamide], with 50 to 500 nM.
Next, `CCOc1ccc(C(=O)CCC(=O)Nc2nc(-c3ccccc3)c(Cc3ccccc3)s2)cc1OCC` [Example 3, N-(5-benzyl-4-phenyl-1,3-thiazol-2-yl)-4-(3,4-diethoxyphenyl)-4-oxobutanamide]: ≤ 10 nM.
With `CCOc1cccc(C(=O)CCC(=O)Nc2nc(-c3ccccc3)c(Cc3ccccc3)s2)c1` [Example 5, N-(5-benzyl-4-phenyl-1,3-thiazol-2-yl)-4-(3-ethoxyphenyl)-4-oxobutanamide], the 50% inhibitory concentration (IC50) was ≤ 10 nM.
Next, `O=C(CCC(=O)c1ccc2c(c1)CCCC2)Nc1nc(-c2ccccc2)c(Cc2ccccc2)s1` [Example 7, N-(5-benzyl-4-phenyl-1,3-thiazol-2-yl)-4-oxo-4-(5,6,7,8-tetrahydronaphthalen-2-yl)butanamide]: ≤ 10 nM; `CCOc1ccc(C(=O)CCC(=O)Nc2cc(-c3ccccc3)cc(-c3ccccc3)c2)cc1OCC` [Example 8, 4-(3,4-diethoxyphenyl)-4-oxo-N-(1,1′:3′,1″-terphenyl-5′-yl)butanamide]: 50 to 500 nM.
Next, `CCOC(=O)CCc1ccc(NC(=O)CCC(=O)c2ccc(OCC)c(OCC)c2)cc1-c1ccccc1` [Example 9, ethyl 3-(5-{[4-(3,4-diethoxyphenyl)-4-oxobutanoyl]amino}biphenyl-2-yl)propanoate]: 50 to 500 nM; `CCOc1ccc(C(=O)CCC(=O)Nc2ccc(CCC(=O)O)c(-c3ccccc3)c2)cc1OCC` [Example 10, 3-(5-{[4-(3,4-diethoxyphenyl)-4-oxobutanoyl]amino}biphenyl-2-yl)propanoic acid]: 500 to 10000 nM; `CCOc1ccc(C(=O)CCC(=O)Nc2cc(-c3ccccc3)cc(-c3ccccc3)n2)cc1OCC` [Example 11, 4-(3,4-diethoxyphenyl)-N-(4,6-diphenylpyridin-2-yl)-4-oxobutanamide]: 10 to 50 nM.
On to `CCOc1ccc(C(=O)CCC(=O)Nc2cc(-c3ccccc3)nc(-c3ccccc3)c2)cc1OCC` [Example 12, 4-(3,4-diethoxyphenyl)-N-(2,6-diphenylpyridin-4-yl)-4-oxobutanamide], for which the half-inhibitory concentration (IC50) lay in the range of 500 to 10000 nM.
Regarding `CCOc1ccc(C(=O)CCC(=O)Nc2ncc(-c3ccccc3)cc2-c2ccccc2)cc1OCC` [Example 13, 4-(3,4-diethoxyphenyl)-N-(3,5-diphenylpyridin-2-yl)-4-oxobutanamide], the IC50 was in the range of 50 to 500 nM.
Next, `CCOc1ccc(C(=O)CCC(=O)Nc2cc(-c3ccccc3)nc(-c3ccccc3)n2)cc1OCC` [Example 14, 4-(3,4-diethoxyphenyl)-N-(2,6-diphenylpyrimidin-4-yl)-4-oxobutanamide]: 50 to 500 nM; `CCOc1ccc(C(=O)CCC(=O)Nc2cc(-c3ccc(OCOC)cc3)c3ccccc3n2)cc1OCC` [Example 15, 4-(3,4-diethoxyphenyl)-N-{4-[4-(methoxymethoxy)phenyl]quinolin-2-yl}-4-oxobutanamide]: 50 to 500 nM; `CCOc1ccc(C(=O)CCC(=O)Nc2cc(-c3ccccc3)c(Cc3ccccc3)s2)cc1OCC` [Example 17, N-(5-benzyl-4-phenyl-2-thienyl)-4-(3,4-diethoxyphenyl)-4-oxobutanamide]: 10 to 50 nM.
Then `CCOc1ccc(C(=O)CCC(=O)Nc2cc(-c3ccccc3)sc2-c2ccccc2)cc1OCC` [Example 18, 4-(3,4-diethoxyphenyl)-N-(2,5-diphenyl-3-thienyl)-4-oxobutanamide], with 50 to 500 nM; and `CCOc1ccc(C(=O)CCC(=O)Nc2ccn(Cc3ccccc3)c2-c2ccccc2)cc1OCC` [Example 19, N-(1-benzyl-2-phenyl-1H-pyrrol-3-yl)-4-(3,4-diethoxyphenyl)-4-oxobutanamide], with 10 to 50 nM.
Turning to `CCOc1ccc(C(=O)CCC(=O)Nc2cn(Cc3ccccc3)nc2-c2ccccc2)cc1OCC` [Example 20, N-(1-benzyl-3-phenyl-1H-pyrazol-4-yl)-4-(3,4-diethoxyphenyl)-4-oxobutanamide], the IC50 fell in the range of 50 to 500 nM.
Turning to `CCOc1ccc(C(=O)CCC(=O)Nc2cnn(Cc3ccccc3)c2-c2ccccc2)cc1OCC` [Example 21, N-(1-benzyl-5-phenyl-1H-pyrazol-4-yl)-4-(3,4-diethoxyphenyl)-4-oxobutanamide], the IC50 lay in the range of 500 to 10000 nM.
Next, `CCOc1ccc(C(=O)CCC(=O)Nc2cc(-c3ccc(O)cc3)c3ccccc3n2)cc1OCC` [Example 22, 4-(3,4-diethoxyphenyl)-N-[4-(4-hydroxyphenyl)quinolin-2-yl]-4-oxobutanamide]: ≤ 10 nM; `CCOc1ccc(C(=O)CCC(=O)Nc2cc(-c3ccc(OCC(=O)O)cc3)c3ccccc3n2)cc1OCC` [Example 23, [4-(2-{[4-(3,4-diethoxyphenyl)-4-oxobutanoyl]amino}quinolin-4-yl)phenoxy]acetic acid]: 500 to 10000 nM; `CCCc1cc(C(=O)CCC(=O)Nc2nc(-c3ccccc3)c(Cc3ccccc3)s2)ccc1OCC` [Example 24, N-(5-benzyl-4-phenyl-1,3-thiazol-2-yl)-4-(4-ethoxy-3-propylphenyl)-4-oxobutanamide]: 10 to 50 nM.
As to `CCOc1ccc(C(=O)CCC(=O)Nc2nc(-c3ccccc3)c(Cc3ccccc3)s2)cc1Br` [Example 25, N-(5-benzyl-4-phenyl-1,3-thiazol-2-yl)-4-(3-bromo-4-ethoxyphenyl)-4-oxobutanamide], the IC50 was ≤ 10 nM.
Next, `CCCc1ccc(C(=O)CCC(=O)Nc2nc(-c3ccccc3)c(Cc3ccccc3)s2)cc1` [Example 26, N-(5-benzyl-4-phenyl-1,3-thiazol-2-yl)-4-oxo-4-(4-propylphenyl)butanamide]: 50 to 500 nM; `O=C(CCC(=O)c1ccc2c(c1)CCO2)Nc1nc(-c2ccccc2)c(Cc2ccccc2)s1` [Example 27, N-(5-benzyl-4-phenyl-1,3-thiazol-2-yl)-4-(2,3-dihydro-1-benzofuran-5-yl)-4-oxobutanamide]: ≤ 10 nM; `O=C(CCC(=O)c1ccc(OC(F)(F)F)cc1)Nc1nc(-c2ccccc2)c(Cc2ccccc2)s1` [Example 28, N-(5-benzyl-4-phenyl-1,3-thiazol-2-yl)-4-oxo-4-[4-(trifluoromethoxy)phenyl]butanamide]: 50 to 500 nM.
Then `COc1cc2c(cc1C(=O)CCC(=O)Nc1nc(-c3ccccc3)c(Cc3ccccc3)s1)CCCC2` [Example 29, N-(5-benzyl-4-phenyl-1,3-thiazol-2-yl)-4-(3-methoxy-5,6,7,8-tetrahydronaphthalen-2-yl)-4-oxobutanamide], with 10 to 50 nM.
